The text below walks through data of patent US11999727B2 (Tango Therapeutics, Inc., priority 2020, dated 2024).

Experiment [1] has as its target T1, PRMT5 (Homo sapiens, UniProt O14744).
T1 construct: purchased Viva (custom protein)
The experiment in a line: PRMT5 biochemical IC50 assay with SAM as cofactor. The following applies: PRMT5, SAM as cofactor; read-out: SAM IC50.

Experiment [2] has as its target T1, PRMT5. The experiment in a line: PRMT5 biochemical IC50 assay with MTA as cofactor. The conditions noted are these: PRMT5, MTA as cofactor; read-out: MTA IC50.
The subject of experiment [3] is HAP1 MTAP-deleted cell line. Put plainly: Viability assay, MTAP-deleted cell line. The conditions noted are these: Homo sapiens, HAP1, viability assay, MTAP-deleted cell line; read-out: HAP1 MTAP deleted viability. In kind it is cell-based. From the text: Table 1 additionally indicates IC50 values in a viability assay for the MTAP-deleted cell line (column 10), indicating the effect of treatment with compound on cell survival.

In experiment [4] the test system is HAP1 MTAP-deleted cell line. The experiment in a line: SDMA in-cell western assay, HAP1 MTAP-deleted. It is filed as cell-based. The conditions noted are these: for IC50: Homo sapiens, HAP1, SDMA in-cell western, HAP1 MTAP-deleted, read-out: HAP 1 MTAP deleted IC50; for MTAP intact/deleted ratio: IC50 ratio HAP1 MTAP-intact / HAP1 MTAP-deleted, SDMA in-cell western. In short, it runs like this: (§1)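 MTAP-null vs endogenous-MTAP HAP1 isogenic cells; in-cell western SDMA readout; IC50 per line.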

Experiment [5] concerns the target T1, PRMT5. The experiment in a line: PRMT5 biochemical IC50 assay with no cofactor. The conditions noted are these: PRMT5, no cofactor; read-out: No Cofactor/ rel IC50. From the text:
Table 1 indicates IC50 values (μM) against PRMT5 for exemplary compounds in the presence of SAM as cofactor, with no cofactor, and with MTA as cofactor, respectively (columns 4-6). […] Ki values can be calculated from the IC50 values as described in the Examples section. As detailed in the Examples section, for the assay performed in the presence of SAM, IC50=Ki×1.5 (Ki=IC50/1.5).

Experiment [6] has as its system HAP1 MTAP-intact cell line. The experiment in a line: SDMA in-cell western assay, HAP1 MTAP-intact. It is filed as cell-based. The following applies: Homo sapiens, HAP1, SDMA in-cell western, HAP1 MTAP-intact; read-out: MTAP HAP1 intact IC50. In short, it runs like this:
as §1

T1 sequence (O14744 whole entry): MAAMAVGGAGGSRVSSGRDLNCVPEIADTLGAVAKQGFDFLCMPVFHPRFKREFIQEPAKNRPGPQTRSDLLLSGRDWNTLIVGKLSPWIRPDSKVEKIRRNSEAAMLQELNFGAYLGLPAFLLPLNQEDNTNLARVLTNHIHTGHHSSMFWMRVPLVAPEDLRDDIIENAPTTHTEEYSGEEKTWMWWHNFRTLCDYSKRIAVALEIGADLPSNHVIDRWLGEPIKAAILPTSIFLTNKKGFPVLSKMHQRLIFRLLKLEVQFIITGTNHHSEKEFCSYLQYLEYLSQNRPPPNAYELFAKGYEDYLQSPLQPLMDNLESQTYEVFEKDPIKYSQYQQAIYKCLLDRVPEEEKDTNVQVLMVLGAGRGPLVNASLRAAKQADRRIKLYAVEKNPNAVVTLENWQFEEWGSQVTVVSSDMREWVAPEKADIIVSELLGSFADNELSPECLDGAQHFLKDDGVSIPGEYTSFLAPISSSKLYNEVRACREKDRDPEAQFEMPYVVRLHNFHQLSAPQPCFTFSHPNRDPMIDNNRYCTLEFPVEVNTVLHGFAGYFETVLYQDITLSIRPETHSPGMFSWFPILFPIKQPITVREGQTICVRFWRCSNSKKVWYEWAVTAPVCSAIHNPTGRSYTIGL
T1 sequence (Q9BQA1 whole entry partner): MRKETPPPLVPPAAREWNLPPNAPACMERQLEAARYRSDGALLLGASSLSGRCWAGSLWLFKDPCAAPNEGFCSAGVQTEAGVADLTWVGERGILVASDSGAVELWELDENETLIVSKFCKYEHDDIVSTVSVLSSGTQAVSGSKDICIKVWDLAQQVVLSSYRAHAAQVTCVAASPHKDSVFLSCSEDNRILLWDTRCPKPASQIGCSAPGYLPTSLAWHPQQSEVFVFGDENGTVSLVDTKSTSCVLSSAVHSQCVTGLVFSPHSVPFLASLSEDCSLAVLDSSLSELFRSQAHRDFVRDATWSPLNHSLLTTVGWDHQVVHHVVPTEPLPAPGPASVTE

For the compound `Cc1cncc(NC(=O)C(=O)N2C[C@H](C)CC[C@H]2c2ccc3ccccc3c2)c1` (racemic) [Compound 83, rac-2-((2R,5S)-5-methyl-2-(naphthalen-2-yl)piperidin-1-yl)-N-(5-methylpyridin-3-yl)-2-oxoacetamide], the IC50 is greater than 500 nM on PRMT5 [1]; 50 to 500 nM on PRMT5 [2]; greater than 10000 nM in experiment [3]; greater than 1000 nM in experiment [4]; greater than 500 nM at PRMT5 [5]; greater than 1000 nM in experiment [6]. In experiment [4], the “MTAP intact/deleted ratio” value is “C (an IC50 ratio of less than 3 fold)”.

Regarding `NC(=O)c1cncc(NC(=O)C(=O)N2CC3CCC(C3)C2c2ccccc2)c1` (racemic) [Compound 86, rac-5-[[2-oxo-2-[(1R,4R,5S)-4-phenyl-3-azabicyclo[3.2.1]octan-3-yl]acetyl]amino]pyridine-3-carboxamide], the IC50 at PRMT5 [1] is 50 to 500 nM; at PRMT5 [2] it was 50 to 500 nM; in experiment [3], greater than 10000 nM; in experiment [4], 100 to 1000 nM; on PRMT5 [5], 50 to 500 nM; in experiment [6] it was greater than 1000 nM. In addition, the “MTAP intact/deleted ratio” value in experiment [4] is “A (an IC50 ratio greater than or equal to 10 fold)”.

On to `Cc1cncc(NC(=O)C(=O)N2C[C@H](C)CC[C@H]2c2ccc(F)cc2)c1` (racemic) [Compound 89, rac-2-((2R,5S)-2-(4-fluorophenyl)-5-methylpiperidin-1-yl)-N-(5-methylpyridin-3-yl)-2-oxoacetamide], for which the IC50 was greater than 500 nM on PRMT5 [1]; 50 to 500 nM at PRMT5 [2]; greater than 10000 nM in experiment [3]; greater than 1000 nM in experiment [4]; 50 to 500 nM on PRMT5 [5]; greater than 1000 nM in experiment [6]. Also, the “MTAP intact/deleted ratio” value in experiment [4] is reported as “C (an IC50 ratio of less than 3 fold)”.

On to `Cc1cncc(NC(=O)C(=O)N2C[C@H](C)CC[C@H]2c2cccc(N)c2)c1` (racemic) [Compound 91, 2-[(2R,5S)-2-(3-aminophenyl)-5-methyl-1-piperidyl]-N-(5-methyl-3-pyridyl)-2-oxo-acetamide], for which the IC50 on PRMT5 [1] is greater than 500 nM; on PRMT5 [2] it was 50 to 500 nM; in experiment [3], greater than 10000 nM; in experiment [4], greater than 1000 nM; at PRMT5 [5], greater than 500 nM; in experiment [6] it was greater than 1000 nM. Besides, in experiment [4], the “MTAP intact/deleted ratio” value is “C (an IC50 ratio of less than 3 fold)”.

Regarding `CNC(=O)c1ccc([C@H]2CC[C@H](C)CN2C(=O)C(=O)Nc2cncc(C)c2)cc1` (racemic) [Compound 92, N-methyl-4-(5-methyl-1-(2-((5-methylpyridin-3-yl)amino)-2-oxoacetyl)piperidin-2-yl)benzamide], the IC50 on PRMT5 [1] was greater than 500 nM; on PRMT5 [2], 50 to 500 nM; in experiment [3] it was greater than 10000 nM; in experiment [4], greater than 1000 nM; on PRMT5 [5], greater than 500 nM; in experiment [6] it was greater than 1000 nM. In addition, the “MTAP intact/deleted ratio” value in experiment [4] was “C (an IC50 ratio of less than 3 fold)”.

Consider `CC(=O)N1CCC(c2cccc(C3CCCCN3C(=O)C(=O)Nc3cnc(N)c(C)c3)c2)CC1` (racemic) [Compound 95, 2-(2-(3-(1-acetylpiperidin-4-yl)phenyl)piperidin-1-yl)-N-(6-amino-5-methylpyridin-3-yl)-2-oxoacetamide], for which the IC50 is 50 to 500 nM at PRMT5 [1]; less than 50 nM at PRMT5 [2]; 1000 to 10000 nM in experiment [3]; less than 100 nM in experiment [4]; 50 to 500 nM on PRMT5 [5]; greater than 1000 nM in experiment [6]. In experiment [4], the “MTAP intact/deleted ratio” value was “A (an IC50 ratio greater than or equal to 10 fold)”.

As for `C[C@@H]1CC[C@@H](c2cccs2)N(C(=O)C(=O)Nc2cncc(C(N)=O)c2)C1` (racemic) [Compound 99, 5-(2-(5-methyl-2-(thiophen-2-yl)piperidin-1-yl)-2-oxoacetamido)nicotinamide], the IC50 on PRMT5 [1] was 50 to 500 nM; on PRMT5 [2] it was less than 50 nM; in experiment [3] it was 1000 to 10000 nM; in experiment [4], less than 100 nM; on PRMT5 [5] it was 50 to 500 nM; in experiment [6], greater than 1000 nM. In addition, the “MTAP intact/deleted ratio” value in experiment [4] was “A (an IC50 ratio greater than or equal to 10 fold)”.

Turning to `C[C@@H]1CC[C@@H](c2cccnc2)N(C(=O)C(=O)Nc2cncc(C(N)=O)c2)C1` (racemic) [Compound 102, 5-[[2-[5-methyl-2-(3-pyridyl)-1-piperidyl]-2-oxo-acetyl]amino]pyridine-3-carboxamide], the IC50 was 50 to 500 nM on PRMT5 [1]; less than 50 nM at PRMT5 [2]; greater than 10000 nM in experiment [3]; 100 to 1000 nM in experiment [4]; 50 to 500 nM at PRMT5 [5]; greater than 1000 nM in experiment [6]. The “MTAP intact/deleted ratio” value in experiment [4] is recorded as “A (an IC50 ratio greater than or equal to 10 fold)”.

Take `Cc1ncc([C@@H]2CC[C@@H](C)CN2C(=O)C(=O)Nc2cnc(N)c(C)c2)cn1` (racemic) [Compound 107, rac-N-(6-amino-5-methylpyridin-3-yl)-2-((2R,5S)-5-methyl-2-(2-methylpyrimidin-5-yl)piperidin-1-yl)-2-oxoacetamide]: the IC50 at PRMT5 [1] was 50 to 500 nM; at PRMT5 [2] it was 50 to 500 nM; in experiment [3], greater than 10000 nM; in experiment [4], greater than 1000 nM; at PRMT5 [5], greater than 500 nM; in experiment [6], greater than 1000 nM. For the same compound, the “MTAP intact/deleted ratio” value in experiment [4] is “C (an IC50 ratio of less than 3 fold)”.

With `Cc1cc(NC(=O)C(=O)N2C[C@H](C)CC[C@H]2c2cncnc2)cnc1N` (racemic) [Compound 109, rac-N-(6-amino-5-methylpyridin-3-yl)-2-((2R,5S)-5-methyl-2-(pyrimidin-5-yl)piperidin-1-yl)-2-oxoacetamide], the IC50 on PRMT5 [1] is 50 to 500 nM; on PRMT5 [2], 50 to 500 nM; in experiment [3] it was greater than 10000 nM; in experiment [4], greater than 1000 nM; at PRMT5 [5] it was greater than 500 nM; in experiment [6], greater than 1000 nM. In addition, the “MTAP intact/deleted ratio” value in experiment [4] is “B (an IC50 ratio greater than or equal to 3 fold but lower than 10 fold)”.

On to `CC(=O)Nc1cccc([C@@H]2CC[C@@H](C)CN2C(=O)C(=O)Nc2cncc(C)c2)c1` (racemic) [Compound 110, 2-[(2S,5R)-2-(3-acetamidophenyl)-5-methyl-1-piperidyl]-N-(5-methyl-3-pyridyl)-2-oxo-acetamide], for which the IC50 at PRMT5 [1] was 50 to 500 nM; at PRMT5 [2], 50 to 500 nM; in experiment [3], greater than 10000 nM; in experiment [4] it was greater than 1000 nM; at PRMT5 [5], 50 to 500 nM; in experiment [6], greater than 1000 nM. In addition, the “MTAP intact/deleted ratio” value in experiment [4] is given as “B (an IC50 ratio greater than or equal to 3 fold but lower than 10 fold)”.

Take `CC(=O)Nc1ccc([C@@H]2CC[C@@H](C)CN2C(=O)C(=O)Nc2cncc(C)c2)cc1` (racemic) [Compound 111, 2-[(2R,5S)-2-(4-acetamidophenyl)-5-methyl-1-piperidyl]-N-(5-methyl-3-pyridyl)-2-oxo-acetamide]: the IC50 was 50 to 500 nM on PRMT5 [1]; 50 to 500 nM on PRMT5 [2]; greater than 10000 nM in experiment [3]; 100 to 1000 nM in experiment [4]; 50 to 500 nM on PRMT5 [5]; greater than 1000 nM in experiment [6]. Besides, the “MTAP intact/deleted ratio” value in experiment [4] is listed as “A (an IC50 ratio greater than or equal to 10 fold)”.

For `Cc1cc(NC(=O)C(=O)N2[C@@H](C)CCC[C@H]2c2ccccc2)cnc1N` (racemic) [Compound 112, N-(6-amino-5-methyl-3-pyridyl)-2-[rac-(2R,6R)-2-methyl-6-phenyl-1-piperidyl]-2-oxo-acetamide], the IC50 is 50 to 500 nM at PRMT5 [1]; less than 50 nM on PRMT5 [2]; 1000 to 10000 nM in experiment [3]; less than 100 nM in experiment [4]; 50 to 500 nM at PRMT5 [5]; 100 to 1000 nM in experiment [6]. The “MTAP intact/deleted ratio” value in experiment [4] is on record as “B (an IC50 ratio greater than or equal to 3 fold but lower than 10 fold)”.

As for `COc1cc([C@@H]2CC[C@@H](C)CN2C(=O)C(=O)Nc2cncc(C(N)=O)c2)ccc1Cl` (racemic) [Compound 114, rac-rac-5-{2-[(2R,5S)-2-(4-chloro-3-methoxyphenyl)-5-methylpiperidin-1-yl]-2-oxoacetamido}pyridine-3-carboxamide], the IC50 at PRMT5 [1] was 50 to 500 nM; at PRMT5 [2], less than 50 nM; in experiment [3], greater than 10000 nM; in experiment [4], less than 100 nM; at PRMT5 [5], 50 to 500 nM; in experiment [6], greater than 1000 nM. In addition, the “MTAP intact/deleted ratio” value in experiment [4] was “A (an IC50 ratio greater than or equal to 10 fold)”.

For `Cc1cc(C)cc([C@@H]2CC[C@@H](C)CN2C(=O)C(=O)Nc2cncc(C(N)=O)c2)c1` (racemic) [Compound 118, rac-5-{2-[(2R,5S)-2-(3,5-dimethylphenyl)-5-methylpiperidin-1-yl]-2-oxoacetamido}pyridine-3-carboxamide], the IC50 on PRMT5 [1] is 50 to 500 nM; on PRMT5 [2] it was less than 50 nM; in experiment [3] it was greater than 10000 nM; in experiment [4], 100 to 1000 nM; on PRMT5 [5], greater than 500 nM; in experiment [6], greater than 1000 nM. For the same compound, in experiment [4], the “MTAP intact/deleted ratio” value is listed as “A (an IC50 ratio greater than or equal to 10 fold)”.
